Experimental data taken from paper PMC10819771 (Pharmaceuticals, 2023).
Read-outs that look alike come from different tables or passages of the source.

Legend:
MDA-MB-231 = experiment: MTT antiproliferative assay, MDA-MB-231; assay type: cell-based, human; settings: MTT, 72 h, breast cancer cells, read-out: IC50 Values (μM) ± SEM MDA-MB-231
Method: (§1) The growth-inhibitory effects of the compounds were determined by MTT (3-(4,5-dimethylthiazol-2-yl)-2,5-diphenyltetrazolium bromide) assay on selected cell lines, including HeLa and SiHa (cervical cancers), MDA-MB-231 and MCF-7 (breast cancers), and A2780 ovarian cancer cells. All cell lines were purchased from the European Collection of Cell Cultures (Salisbury, UK) except SiHa, which was obtained from the American Tissue Culture Collection (Manassas, VA, USA). The cells were kept in minimum essential medium supplemented with 10% fetal bovine serum, 1% non-essential amino acids, and 1% penicillin-streptomycin-amphotericin-B at 37 °C in a humidified atmosphere containing 5% CO2. Media and supplements were obtained from Lonza Group Ltd., (Basel, Switzerland). Cancer cells were seeded onto 96-well plates (5000 cells/well), after an overnight incubation the test compounds were added in six concentrations (0.1, 0.3, 1.0, 3.0, 10.0, 30.0 µM) and incubated for 72 h under cell-culture condition. After the incubation, 20 μL of 5 mg/mL MTT solution was added to each well and incubated for a further 4 h. The medium was removed, and the precipitated formazan crystals were dissolved in DMSO for 30 min under shaking at 37 °C. The absorbance was measured at 545 nm with a microplate reader. Untreated cells were included as controls. Calculations were performed by means of the GraphPad Prism 5.01 software (GraphPad Software Inc., San Diego, CA, USA). At least two independent determinations were performed with 5 parallel wells for each condition.

HeLa = experiment: MTT antiproliferative assay, HeLa; assay type: cell-based, human; settings: Homo sapiens, HeLa; MTT, 72 h, cervical cancer cells; read-out: IC50 Values (μM) ± SEM HeLa
Method: as §1

Fc-MYCT = experiment: FRET-melting, Fc-MYCT; assay type: binding; settings: ligand 2 μM, DNA 0.2 μM, K+ conditions, pH 7.2
Method: (§2) FRET-melting experiments were conducted on a Stratagene MX3005P (Thermo Fisher Scientific, Illkirch-Graffenstaden, France) real-time PCR equipment in 96-well plates on the DNA sequences reported in Table 4. Experiments were performed in 10 mM lithium cacodylate buffer (pH 7.2) and either 10 mM KCl and 90 mM LiCl (FK-RAST, FBCL-2T, F21T, and FdxT) or 1 mM KCl and 99 mM LiCl (Fc-MYCT) concentrations, depending on the Tm of the G4s alone. The DNA concentration was 0.2 µM. […] Data are presented as an average of three independent measurements, each conducted in duplicate conditions (λexc = 492 nm, λem = 516 nm, T interval = 25–95 °C, ramp: 25 °C for 5 min, then 1 °C/min, measurements every 1 °C, 8× magnification of the fluorescence signal).

MCF-7 = experiment: MTT antiproliferative assay, MCF-7; assay type: cell-based, human; settings: MTT, 72 h, breast cancer cells, read-out: IC50 Values (μM) ± SEM MCF-7
Method: as §1

FK-RAST = experiment: FRET-melting, FK-RAST; assay type: binding; settings: ligand 2 μM, DNA 0.2 μM, 10 mM KCl, 90 mM LiCl, pH 7.2
Method: as §2

A2780 = experiment: MTT antiproliferative assay, A2780; assay type: cell-based, human; settings: Homo sapiens, A2780; MTT, 72 h, ovarian cancer cells; read-out: IC50 Values (μM) ± SEM A2780
Method: as §1

SiHa = experiment: MTT antiproliferative assay, SiHa; assay type: cell-based, human; settings: Homo sapiens, SiHa; MTT, 72 h, cervical cancer cells; read-out: IC50 Values (μM) ± SEM SiHa
Method: as §1

FdxT = experiment: FRET-melting, duplex control FdxT; assay type: binding; settings: ligand 2 μM, DNA 0.2 μM, 10 mM KCl, 90 mM LiCl, pH 7.2, hairpin duplex
Method: as §2

FBCL-2T = experiment: FRET-melting, FBCL-2T; assay type: binding; settings: ligand 2 μM, DNA 0.2 μM, 10 mM KCl, 90 mM LiCl, pH 7.2
Method: as §2

[1] = system: FK-RAST (DNA, G4) AGGGCGGTGTGGGAAGAGGGA; experiment: FRET melting; settings: 10 mM K+, 90 mM Li+; 10 mM lithium cacodylate pH 7.2; 0.2 µM DNA, 2 µM compound
[2] = system: human telomeric sequence F21T; experiment: FRET-melting, F21T; assay type: binding; settings: ligand 2 μM, DNA 0.2 μM, 10 mM KCl, 90 mM LiCl, pH 7.2
Method: as §2

[3] = system: F21T (DNA, G4) GGGTTAGGGTTAGGGTTAGGG; experiment: FRET melting; settings: 10 mM K+, 90 mM Li+; 10 mM lithium cacodylate pH 7.2; 0.2 µM DNA, 2 µM compound
K562 = experiment: MTS cell proliferation assay, K562; assay type: cell-based, human; settings: Homo sapiens, K562, 72 h; MTS, 3-day incubation, leukemia cells; read-out: IC50 Values (μM) ± SEM K562
Method: The human leukemic cell line K562 was grown in RPMI 1640 medium (Life Technology-Invitrogen by Thermo Fisher Scientific, Saint-Aubin, France) supplemented with 10% fetal calf serum (FCS), antibiotics (100 U/mL penicillin, 100 µg/mL streptomycin), and L-glutamine, (Eurobio, Les Ulis, France) at 37 °C, 5% CO2 in air. The MTS cell proliferation assay (Promega, Charbonnières-les-Bains, France) is a colorimetric assay system, which measures the transformation of a tetrazolium component (MTS) into formazan produced by the mitochondria of viable cells. Cells were washed twice in PBS (Phosphate Buffer Saline) and plated in quadruplicate into microtiter-plate wells in 100 μL culture media with or without our various compounds at increasing concentrations (0, 1, 5, 10, 20, and 50 μM) for 1, 2, and 3 days. After 3 h of incubation at 37 °C with 20 μL MTS/well, the plates were read using an ELISA microplate reader (Thermo, Electrocorporation, Waltham, MA, USA) at 490 nm. The amount of color produced was directly proportional to the number of viable cells. The results are expressed as the concentrations inhibiting cell growth by 50% after a 3-day incubation period. The 50% cytotoxic concentrations (CC50) were determined by linear regression analysis, expressed in μM ± SD (Microsoft Excel).

[4] = system: Fc-MYCT (DNA, G4) GGGTGGGTAGGGTGGGTAA; experiment: FRET melting; settings: 1 mM K+, 99 mM Li+ (table footnote says 10 mM KCl, 90 mM LiCl); 10 mM lithium cacodylate pH 7.2; 0.2 µM DNA, 2 µM compound

Row | Structure (SMILES) | IC50 (MDA-MB-231; Homo sapiens, MDA-MB-231, 72 h) [µM] | IC50 (MDA-MB-231) [µM] | IC50 (HeLa) [µM] | ΔT1/2 (°C) Fc-MYCT (Fc-MYCT) [°C] | IC50 (MCF-7; Homo sapiens, MCF7, 72 h) [µM] | IC50 (MCF-7) [µM] | ΔT1/2 (°C) FK-RAST (FK-RAST) [°C] | IC50 (A2780) [µM] | IC50 (SiHa) [µM] | ΔT1/2 (°C) FdxT (FdxT) [°C] | ΔT1/2 (°C) FBCL-2T (FBCL-2T) [°C] | ΔT1/2 [1] [°C] | ΔT1/2 (°C) F21T [2] [°C] | ΔT1/2 [3] [°C] | IC50 (K562) [µM] | ΔT1/2 [4] [°C]
1 | CN(C)CCCNCc1ccc(-c2nc(-c3ccc(CNCCCN(C)C)cc3)c3c(-c4ccccc4)cccc3n2)cc1 [Compound 12a, 2,4-bis{4-[(3-dimethylaminopropyl)aminomethyl]phenyl}-5-phenylquinazoline] | 1.45 | 1.45 ± 0.14 | 1.36 ± 0.04 | 9.3 ± 0.3 | 1.12 to 1.24 | 1.12 ± 0.13 | 10.6 ± 0.6 | 2.6 ± 0.03 | 0.62 ± 0.12 | 0.9 ± 0.2 | 7.4 ± 0.9 | 10.6 ± 0.6 | 6.8 ± 0.8 | 6.8 ± 0.8 | 14 ± 0.2 | 
2 | CN(C)CCCNCc1ccc(-c2cc(-c3ccc(CNCCCN(C)C)cc3)c3cccc(-c4ccccc4)c3n2)cc1 [Compound 13e, 2,4-bis{4-[(3-dimethylaminopropyl)aminomethyl]phenyl}-8-phenylquinoline] | 1.21 ± 0.03 |  | 1.28 ± 0.21 | 5.5 ± 0.9 | 1.12 ± 0.1 |  | 11.6 ± 1.4 | 1.5 ± 0.34 | 1.07 ± 0.45 | 0.2 ± 0.1 | 8.3 ± 0.1 |  | 15.9 ± 0.4 |  | 7 ± 0.1 | 5.5 ± 0.9
